From patent US11096885B2, “Composition for enhancing skin elasticity or improving skin wrinkles comprising ginseng cell lysate” (AMOREPACIFIC CORPORATION, priority 2018, dated 2021)

Tested on: MMP-1
Experiment: MMP-1 ELISA assay: inhibition of MMP-1 production in UVB-irradiated human skin fibroblasts
Assay type: cell-based
Conditions: HS68 cells; for MMP-1 (%): untreated control = 100, UVB group = 463.00
Experimental: The MMP-1 ELISA assay was performed to confirm the effect of the composition of Example 1 and Comparative Example 1 on the inhibition of MMP-1 production, which is a skin tissue degrading enzyme, in UVB-irradiated human skin fibroblasts.
Specifically, HS68 cells, which are human skin fibroblasts, were seeded in a 48-well plate at a concentration of 2×10^4 cells/well, and then cultured in a DMEM medium (WelGene) containing 10% fetal bovine serum (FBS, WelGene) and 1% penicillin/streptomycin under a condition of 37° C. and 5% CO2. Then, the medium was removed and washed with DPBS (Dulbecco's Phosphate-Buffered Saline). Then, the cells from Example 1 and Comparative Example 1 diluted by concentration (125 ppm, 250 ppm, 500 ppm) in a DMEM medium containing no fetal bovine serum (FBS) and pretreated for 6 hours. Then, the medium was removed and was filled with 100 μl of DPBS, and then was irradiated at UVB 30 mJ/cm^2. The cells from Example 1 and Comparative Example 1 were diluted by concentration (250 ppm, 500 ppm) in a DMEM medium containing no fetal bovine serum (FBS), treated and cultured for 48 hours. After collecting the medium of the cultured cells, the amount of MMP-1 secretion was measured using a human MMP-1 ELISA kit (R&D Systems), and the absorbance was measured at 450 nm using an ELISA reader (Infinite M200Pro, Tecan). The cells attached to the bottom of the plate were washed with DPBS, lysed with 1N NaOH, and the amount of protein was measured using a BCA assay (Pierce® BCA protein assay kit, Thermo Scientific). The amount of MMP-1 secretion per certain protein was corrected and expressed as a percentage (%). As a positive control group, 1 μM and 10 μM of retinoic acid (RA) were used. Statistical significance between samples was used by the student's t-test and was analyzed to be statistically significant when the p-value was 0.05 or less (* P<0.05, ** p<0.01, *** p<0.001).

Compound: CC1=C(/C=C/C(C)=C/C=C/C(C)=C/C(=O)O)C(C)(C)CCC1 [RA, retinoic acid]
- reduction of MMP-1 secretion as compared to the UVB irradiation group (UVB 30 mJ/cm^2, 1 μM): 111.06%
- MMP-1 (%) (UVB 30 mJ/cm^2, 1 μM): 351.95 ± 22.95%
- reduction of MMP-1 secretion as compared to the UVB irradiation group (UVB 30 mJ/cm^2, 10 μM): 239.71%
- MMP-1 (%) (UVB 30 mJ/cm^2, 10 μM): 223.29 ± 114.85%
